Results taken from patent US20210403573A1, “METHODS AND PHARMACEUTICAL COMPOSITIONS FOR THE TREATMENT OF FIBROSIS WITH AGENTS CAPABLE OF INHIBITING THE ACTIVATION OF MUCOSAL-ASSOCIATED INVARIANT T (MAIT) CELLS” (INSERM (Institut National de la Santé et de la Recherche …, priority 2017, published 2021).

Biological target: T1, MR1 (Homo sapiens, UniProt Q95460)
T1 construct: endogenous in cells; host or cells: human hepatic myofibroblasts (HMF), alone or in co-culture with MAIT cells
Test: Surface expression of MR1 on hepatic myofibroblasts by flow cytometry
Format: cell-based
Conditions: 1 μM, 2 hrs at 37° C., PE-conjugated anti MR1 antibody (26.5)
Procedure: Analysis of Surface Expression of MR1 on Hepatic Myofibroblasts by Flow Cytometry
Hepatic myofibroblast cultures or HMF/MAIT cell co-cultures were exposed to 1 μM Acetyp 6-formylpterin (Ac 6-FP) (Schircks Laboratories, Switzerland) for 2 hrs at 37° C. Cells were then washed, trypsinised, labeled with PE-conjugated anti MR1 antibody (26.5)/isotype control and subjected to flow cytometric analysis.

T1 sequence (P61769 21-119): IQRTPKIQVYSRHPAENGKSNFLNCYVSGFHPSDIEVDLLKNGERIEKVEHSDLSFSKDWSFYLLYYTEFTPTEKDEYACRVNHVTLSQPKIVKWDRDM
T1 sequence (Q95460 23-341): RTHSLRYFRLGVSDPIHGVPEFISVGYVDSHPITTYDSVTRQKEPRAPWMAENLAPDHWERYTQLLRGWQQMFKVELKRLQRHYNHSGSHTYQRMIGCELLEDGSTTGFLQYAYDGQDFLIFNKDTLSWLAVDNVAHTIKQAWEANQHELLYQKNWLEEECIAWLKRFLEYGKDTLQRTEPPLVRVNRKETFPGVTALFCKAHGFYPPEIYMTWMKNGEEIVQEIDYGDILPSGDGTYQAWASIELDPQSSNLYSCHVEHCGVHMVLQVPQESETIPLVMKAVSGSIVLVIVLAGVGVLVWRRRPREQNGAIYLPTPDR

In the case of “Acetyl-6-formyl-pterin [Acetyl-6-formyl-pterin (6FP)]”, the “surface expression of MR1 on hepatic myofibroblasts” value is reported as “enhanced”.
